Laboratory results published in patent US9365576B2, “Pyrrolopyrrolidinone compounds” (Novartis AG, priority 2012, dated 2016).

Each compound was assayed against human MDM2 protein (amino acids 2-188) (Homo sapiens (Human), UniProt Q00987) (assay: TR-FRET assay, p53-MDM2 Assay 2 (modified)). Conditions: TR-FRET; 0.1 nM MDM2, 0.1 nM Europium labeled streptavidin, Tecan genios Pro reader; read-out: IC50 p53-MDM2 Assay 2.
Format: binding
Summary of the method: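 IC50 values were curve-fitted from the time-resolved 665/620 nm emission ratio after 340 nm excitation. The assay combined 0.625 nM europium-streptavidin donor with 1.25 nM C-terminally biotinylated MDM2 2–188 (15 min, RT), followed by 15 min with 10 nM Cy5-labeled p53 18–26 acceptor peptide.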

Chain of human MDM2 protein (amino acids 2-188) (Q00987 2-188): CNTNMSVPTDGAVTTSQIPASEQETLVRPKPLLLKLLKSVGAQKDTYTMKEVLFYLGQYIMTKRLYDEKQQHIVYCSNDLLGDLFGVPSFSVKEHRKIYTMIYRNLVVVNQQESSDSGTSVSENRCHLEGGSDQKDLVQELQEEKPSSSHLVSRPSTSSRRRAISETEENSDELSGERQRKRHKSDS

First: COc1nc(N)ncc1-c1cc2c(n1C(C)C)C(c1ccc(Cl)cc1)N(c1cc(Cl)cn(C)c1=O)C2=O (centres unmarked) [Example 71, 2-(2-Amino-4-methoxy-pyrimidin-5-yl)-5-(5-chloro-1-methyl-2-oxo-1,2-dihydro-pyridin-3-yl)-6-(4-chloro-phenyl)-1-isopropyl-5,6-dihydro-1H-pyrrolo[3,4-b]pyrrol-4-one]
Second: CNc1ncc(-c2cc3c(n2C(C)C)C(c2ccc(Cl)cc2)N(c2cc(Cl)cn(C)c2=O)C3=O)c(OC)n1 (centres unmarked) [Example 72, 5-(5-Chloro-1-methyl-2-oxo-1,2-dihydro-pyridin-3-yl)-6-(4-chloro-phenyl)-1-isopropyl-2-(4-methoxy-2-methylamino-pyrimidin-5-yl)-5,6-dihydro-1H-pyrrolo[3,4-b]pyrrol-4-one]
The IC50 of the first is 2.2-fold higher: 0.635 nM for the first, 0.295 nM for the second. The second is the more potent here.

`COc1nc(N(C)C)ncc1-c1cc2c(n1C(C)C)C(c1ccc(Cl)cc1)N(c1cc(Cl)cn(C)c1=O)C2=O` (centres unmarked) [Example 73, 5-(5-Chloro-1-methyl-2-oxo-1,2-dihydro-pyridin-3-yl)-6-(4-chloro-phenyl)-2-(2-dimethylamino-4-methoxy-pyrimidin-5-yl)-1-isopropyl-5,6-dihydro-1H-pyrrolo[3,4-b]pyrrol-4-one] and `COc1nc(N(C)C)ncc1-c1cc2c(n1C(C)C)C(c1ccc(C#N)cc1)N(c1cc(Cl)ccc1C)C2=O` (centres unmarked) [Example 95, 4-[5-(5-Chloro-2-methyl-phenyl)-2-(2-dimethylamino-4-methoxy-pyrimidin-5-yl)-1-isopropyl-4-oxo-1,4,5,6-tetrahydro-pyrrolo[3,4-b]pyrrol-6-yl]-benzonitrile] are within 1.5-fold of each other in IC50: 0.161 nM for the first, 0.194 nM for the second.

Going from `COc1ccccc1-c1cc2c(n1C(C)C)C(c1ccc(Cl)cc1)N(C1CCOCC1)C2=O` (centres unmarked) [Example 74, 6-(4-Chloro-phenyl)-1-isopropyl-2-(2-methoxy-phenyl)-5-(tetrahydro-pyran-4-yl)-5,6-dihydro-1H-pyrrolo[3,4-b]pyrrol-4-one] to `COc1ccc(C#N)cc1-c1cc2c(n1C(C)C)C(c1ccc(Cl)cc1)N(C1CCOCC1)C2=O` (centres unmarked) [Example 77, 3-[6-(4-Chloro-phenyl)-1-isopropyl-4-oxo-5-(tetrahydro-pyran-4-yl)-1,4,5,6-tetrahydro-pyrrolo[3,4-b]pyrrol-2-yl]-4-methoxy-benzonitrile], the IC50 falls from 2.57 nM to 1.51 nM (1.7-fold).

Going from `CNC(=O)c1ccc(OC)c(-c2cc3c(n2C(C)C)C(c2ccc(Cl)cc2)N(C2CCOCC2)C3=O)c1` (centres unmarked) [Example 75, 3-[6-(4-Chloro-phenyl)-1-isopropyl-4-oxo-5-(tetrahydro-pyran-4-yl)-1,4,5,6-tetrahydro-pyrrolo[3,4-b]pyrrol-2-yl]-4-methoxy-N-methyl-benzamide] to `COc1ncc(-c2cc3c(n2C(C)C)C(c2ccc(Cl)cc2)N(C2CCOCC2)C3=O)c(OC)n1` (centres unmarked) [Example 76, 6-(4-Chloro-phenyl)-2-(2,4-dimethoxy-pyrimidin-5-yl)-1-isopropyl-5-(tetrahydro-pyran-4-yl)-5,6-dihydro-1H-pyrrolo[3,4-b]pyrrol-4-one], the IC50 rises from 1.09 nM to 1.64 nM (1.5-fold). The first is the more potent here.

`COc1nc(N(C)C)ncc1-c1cc2c(n1C(C)C)C(c1ccc(Cl)cc1)N(C1CCOCC1)C2=O` (centres unmarked) [Example 79, 6-(4-Chloro-phenyl)-2-(2-dimethylamino-4-methoxy-pyrimidin-5-yl)-1-isopropyl-5-(tetrahydro-pyran-4-yl)-5,6-dihydro-1H-pyrrolo[3,4-b]pyrrol-4-one] and `COc1nc(N(C)C)ncc1-c1cc2c(n1C(C)C)C(c1ccc(C#N)cc1)N(c1ccc(F)c(Cl)c1)C2=O` (centres unmarked) [Example 93, 4-[5-(3-Chloro-4-fluoro-phenyl)-2-(2-dimethylamino-4-methoxy-pyrimidin-5-yl)-1-isopropyl-4-oxo-1,4,5,6-tetrahydro-pyrrolo[3,4-b]pyrrol-6-yl]-benzonitrile] are within 1.5-fold of each other in IC50: 0.423 nM for the first, 0.361 nM for the second.

Going from `COc1ccc(CC(N)=O)cc1-c1cc2c(n1C(C)C)C(c1ccc(Cl)cc1)N(c1cc(Cl)ccc1C)C2=O` (centres unmarked) [Example 80, 2-{3-[5-(5-Chloro-2-methyl-phenyl)-6-(4-chloro-phenyl)-1-isopropyl-4-oxo-1,4,5,6-tetrahydro-pyrrolo[3,4-b]pyrrol-2-yl]-4-methoxy-phenyl}-acetamide] to `COc1ccc(CC(=O)O)cc1-c1cc2c(n1C(C)C)[C@H](c1ccc(Cl)cc1)N(c1cc(Cl)ccc1C)C2=O` [Example 91, {3-[(S)-5-(5-Chloro-2-methyl-phenyl)-6-(4-chloro-phenyl)-1-isopropyl-4-oxo-1,4,5,6-tetrahydro-pyrrolo[3,4-b]pyrrol-2-yl]-4-methoxy-phenyl}-acetic acid], the IC50 falls from 0.115 nM to 0.061 nM (1.9-fold). The second is the more potent here.

Going from `CNC(=O)Cc1ccc(OC)c(-c2cc3c(n2C(C)C)C(c2ccc(Cl)cc2)N(c2cc(Cl)ccc2C)C3=O)c1` (centres unmarked) [Example 81, 2-{3-[5-(5-Chloro-2-methyl-phenyl)-6-(4-chloro-phenyl)-1-isopropyl-4-oxo-1,4,5,6-tetrahydro-pyrrolo[3,4-b]pyrrol-2-yl]-4-methoxy-phenyl}-N-methyl-acetamide] to `COc1ccc(CC(=O)O)cc1-c1cc2c(n1C(C)C)[C@@H](c1ccc(Cl)cc1)N(c1cc(Cl)ccc1C)C2=O` [Example 92, {3-[(R)-5-(5-Chloro-2-methyl-phenyl)-6-(4-chloro-phenyl)-1-isopropyl-4-oxo-1,4,5,6-tetrahydro-pyrrolo[3,4-b]pyrrol-2-yl]-4-methoxy-phenyl}-acetic acid], the IC50 rises from 0.148 nM to 41.9 nM (280-fold). The first is the more potent here.

First: COc1ccc(CC(=O)N(C)C)cc1-c1cc2c(n1C(C)C)C(c1ccc(Cl)cc1)N(c1cc(Cl)ccc1C)C2=O (centres unmarked) [Example 82, 2-{3-[5-(5-Chloro-2-methyl-phenyl)-6-(4-chloro-phenyl)-1-isopropyl-4-oxo-1,4,5,6-tetrahydro-pyrrolo[3,4-b]pyrrol-2-yl]-4-methoxy-phenyl}-N,N-dimethyl-acetamide]
Second: COc1ccc(C(=O)O)cc1-c1cc2c(n1C(C)C)[C@H](c1ccc(Cl)cc1)N(c1cc(Cl)ccc1C)C2=O [Example 89, 3-[(S)-5-(5-Chloro-2-methyl-phenyl)-6-(4-chloro-phenyl)-1-isopropyl-4-oxo-1,4,5,6-tetrahydro-pyrrolo[3,4-b]pyrrol-2-yl]-4-methoxy-benzoic acid]
The IC50 of the first is 1.9-fold higher: 0.152 nM for the first, 0.08 nM for the second. The second is the more potent here.

`CCOC(=O)Cc1cnc(OC)c(-c2cc3c(n2C(C)C)C(c2ccc(C#N)cc2)N(c2cccc(Cl)c2F)C3=O)c1` (centres unmarked) [Example 83, {5-[5-(3-Chloro-2-fluoro-phenyl)-6-(4-cyano-phenyl)-1-isopropyl-4-oxo-1,4,5,6-tetrahydro-pyrrolo[3,4-b]pyrrol-2-yl]-6-methoxy-pyridin-3-yl}-acetic acid ethyl ester] and `CNC(=O)Cc1cnc(OC)c(-c2cc3c(n2C(C)C)C(c2ccc(C#N)cc2)N(c2cccc(Cl)c2F)C3=O)c1` (centres unmarked) [Example 85, 2-{5-[5-(3-Chloro-2-fluoro-phenyl)-6-(4-cyano-phenyl)-1-isopropyl-4-oxo-1,4,5,6-tetrahydro-pyrrolo[3,4-b]pyrrol-2-yl]-6-methoxy-pyridin-3-yl}-N-methyl-acetamide] are within 1.5-fold of each other in IC50: 4.16 nM for the first, 3.16 nM for the second.

`COc1cnc(CC(=O)O)cc1-c1cc2c(n1C(C)C)C(c1ccc(C#N)cc1)N(c1cccc(Cl)c1F)C2=O` (centres unmarked) [Example 84, {4-[5-(3-Chloro-2-fluoro-phenyl)-6-(4-cyano-phenyl)-1-isopropyl-4-oxo-1,4,5,6-tetrahydro-pyrrolo[3,4-b]pyrrol-2-yl]-5-methoxy-pyridin-2-yl}-acetic acid] and `CNC(=O)Cc1cc(-c2cc3c(n2C(C)C)C(c2ccc(C#N)cc2)N(c2cccc(Cl)c2F)C3=O)c(OC)cn1` (centres unmarked) [Example 86, 2-{4-[5-(3-Chloro-2-fluoro-phenyl)-6-(4-cyano-phenyl)-1-isopropyl-4-oxo-1,4,5,6-tetrahydro-pyrrolo[3,4-b]pyrrol-2-yl]-5-methoxy-pyridin-2-yl}-N-methyl-acetamide] are within 1.5-fold of each other in IC50: 0.482 nM for the first, 0.334 nM for the second.

First: COc1cnc(CC#N)cc1-c1cc2c(n1C(C)C)C(c1ccc(C#N)cc1)N(c1cccc(Cl)c1F)C2=O (centres unmarked) [Example 87, 4-[5-(3-Chloro-2-fluoro-phenyl)-2-(2-cyanomethyl-5-methoxy-pyridin-4-yl)-1-isopropyl-4-oxo-1,4,5,6-tetrahydro-pyrrolo[3,4-b]pyrrol-6-yl]-benzonitrile]
Second: COc1ncc(CC#N)cc1-c1cc2c(n1C(C)C)C(c1ccc(C#N)cc1)N(c1cccc(Cl)c1F)C2=O (centres unmarked) [Example 88, 4-[5-(3-Chloro-2-fluoro-phenyl)-2-(5-cyanomethyl-2-methoxy-pyridin-3-yl)-1-isopropyl-4-oxo-1,4,5,6-tetrahydro-pyrrolo[3,4-b]pyrrol-6-yl]-benzonitrile]
The IC50 of the first is 4.6-fold lower: 0.359 nM for the first, 1.64 nM for the second.

First: COc1ccc(C(=O)O)cc1-c1cc2c(n1C(C)C)[C@@H](c1ccc(Cl)cc1)N(c1cc(Cl)ccc1C)C2=O [Example 90, 3-[(R)-5-(5-Chloro-2-methyl-phenyl)-6-(4-chloro-phenyl)-1-isopropyl-4-oxo-1,4,5,6-tetrahydro-pyrrolo[3,4-b]pyrrol-2-yl]-4-methoxy-benzoic acid]
Second: CNC(=O)c1ccc(OC)c(-c2cc3c(n2C(C)C)C(c2ccc(Cl)cc2)N(c2cc(Cl)ccc2C#N)C3=O)c1 (centres unmarked) [Example 97, 3-[5-(5-Chloro-2-cyano-phenyl)-6-(4-chloro-phenyl)-1-isopropyl-4-oxo-1,4,5,6-tetrahydro-pyrrolo[3,4-b]pyrrol-2-yl]-4-methoxy-N-methyl-benzamide]
The IC50 of the first is 16-fold higher: 6.21 nM for the first, 0.378 nM for the second. The second is the more potent here.

Going from `COc1nc(N(C)C)ncc1-c1cc2c(n1C(C)C)C(c1ccc(C#N)cc1)N(c1cccc(Cl)c1F)C2=O` (centres unmarked) [Example 94, 4-[5-(3-Chloro-2-fluoro-phenyl)-2-(2-dimethylamino-4-methoxy-pyrimidin-5-yl)-1-isopropyl-4-oxo-1,4,5,6-tetrahydro-pyrrolo[3,4-b]pyrrol-6-yl]-benzonitrile] to `COc1ccccc1-c1cc2c(n1C(C)C)C(c1ccc(Cl)cc1)N(c1cc(Cl)ccc1C#N)C2=O` (centres unmarked) [Example 96, 4-Chloro-2-[6-(4-chloro-phenyl)-1-isopropyl-2-(2-methoxy-phenyl)-4-oxo-4,6-dihydro-1H-pyrrolo[3,4-b]pyrrol-5-yl]-benzonitrile], the IC50 rises from 0.188 nM to 1.95 nM (10-fold).
